Test results taken from ChEMBL document CHEMBL3885861, “Open TG-GATES”.

Species: Rattus norvegicus
Assay: Open TG-GATES - Regimen: Daily Repeat
Assay type: toxicity, organism-based, Sprague-Dawley
Set-up: regimen Daily Repeat, gender Male, age 6 weeks
Conditions: in vivo, po, route gavage; for APTT / Bas / Eos / Fbg / Hb / Ht / Lym / MCH / MCHC / MCV / Mono / Neu / PT / Plat / RBC / Ret / WBC: tissue Blood; for KIDNEY_L / KIDNEY_R / KIDNEY_TOTAL: tissue Kidney; for LIVER: tissue Liver; for A/G / ALP / ALT / AST / BUN / CRE / Ca / Cl / DBIL / GLC / IP / K / LDH / Na / PL / RALB / TBIL / TC / TG / TP / gamma-GTP: tissue Plasma
[1] = 0 mg/kg, 72 h, dose level Control, time 3 day
[2] = 0 mg/kg, […], dose level Control, time 7 day
[3] = 0 mg/kg, […], dose level Control, time 14 day
[4] = 0 mg/kg, […], dose level Control, time 28 day
[5] = 10 mg/kg, 72 h, dose level Low, time 3 day
[6] = 10 mg/kg, […], dose level Low, time 7 day
[7] = 10 mg/kg, […], dose level Low, time 14 day
[8] = 10 mg/kg, […], dose level Low, time 28 day

CCC1(c2ccccc2)C(=O)NC(=O)NC1=O [PHENOBARBITAL]
TERMINAL_BW [1]: 222.1 g
APTT [1]: 15.6 s
Bas [1]: 0%
Eos [1]: 0.6%
Fbg [1]: 225 mg/dL
Hb [1]: 13.2 g/dL
Ht [1]: 39.4%
Lym [1]: 76.8%
MCH [1]: 22.4 pg
MCHC [1]: 33.6%
MCV [1]: 66.9 fL
Mono [1]: 7.4%
Neu [1]: 15.2%
PT [1]: 12 s
Plat [1]: 126.6 x10_4/uL
RBC [1]: 589.6 x10_4/ul
Ret [1]: 7.7%
WBC [1]: 129.8 x10_2/uL
KIDNEY_L [1]: 0.9 g
KIDNEY_R [1]: 1 g
KIDNEY_TOTAL [1]: 1.9 g
LIVER [1]: 11.2 g
A/G [1]: 1.6
ALP [1]: 912.8 IU/L
ALT [1]: 34 IU/L
AST [1]: 61.4 IU/L
BUN [1]: 16 mg/dL
CRE [1]: 0.5 mg/dL
Ca [1]: 10.8 mg/dL
Cl [1]: 106.6 meq/L
DBIL [1]: 0.01 mg/dL
GLC [1]: 201.8 mg/dL
IP [1]: 7.9 mg/dL
K [1]: 4.9 meq/L
LDH [1]: 84.2 IU/L
Na [1]: 139.4 meq/L
PL [1]: 158.6 mg/dL
RALB [1]: 3.6 g/dL
TBIL [1]: 0.4 mg/dL
TC [1]: 80.2 mg/dL
TG [1]: 142.6 mg/dL
TP [1]: 5.9 g/dL
gamma-GTP [1]: 1.8 IU/L
TERMINAL_BW [2]: 254.1 g
TERMINAL_BW [3]: 296 g
TERMINAL_BW [4]: 396.2 g
APTT [2]: 15.9 s
Bas [2]: 0%
Eos [2]: 0.8%
Fbg [2]: 224.8 mg/dL
Hb [2]: 14.2 g/dL
Ht [2]: 42.7%
Lym [2]: 82.2%
MCH [2]: 21.9 pg
MCHC [2]: 33.4%
MCV [2]: 65.5 fL
Mono [2]: 6.8%
Neu [2]: 10.4%
PT [2]: 11.9 s
Plat [2]: 110.9 x10_4/uL
RBC [2]: 652 x10_4/ul
Ret [2]: 6.1%
WBC [2]: 125.6 x10_2/uL
APTT [3]: 16.5 s
Bas [3]: 0%
Eos [3]: 0.4%
Fbg [3]: 241.4 mg/dL
Hb [3]: 14.7 g/dL
Ht [3]: 44.1%
Lym [3]: 88.2%
MCH [3]: 20.6 pg
MCHC [3]: 33.4%
MCV [3]: 61.9 fL
Mono [3]: 3.6%
Neu [3]: 7.8%
PT [3]: 11.6 s
Plat [3]: 113.2 x10_4/uL
RBC [3]: 713.2 x10_4/ul
Ret [3]: 5.1%
WBC [3]: 153.7 x10_2/uL
APTT [4]: 17 s
Bas [4]: 0%
Eos [4]: 0.8%
Fbg [4]: 236 mg/dL
Hb [4]: 14.8 g/dL
Ht [4]: 44.6%
Lym [4]: 84.4%
MCH [4]: 19.3 pg
MCHC [4]: 33.2%
MCV [4]: 58.2 fL
Mono [4]: 5.6%
Neu [4]: 9.4%
PT [4]: 12 s
Plat [4]: 109 x10_4/uL
RBC [4]: 766 x10_4/ul
Ret [4]: 2.6%
WBC [4]: 129.1 x10_2/uL
KIDNEY_L [2]: 1 g
KIDNEY_R [2]: 1 g
KIDNEY_TOTAL [2]: 2.1 g
KIDNEY_L [3]: 1.1 g
KIDNEY_R [3]: 1.1 g
KIDNEY_TOTAL [3]: 2.2 g
KIDNEY_L [4]: 1.4 g
KIDNEY_R [4]: 1.4 g
KIDNEY_TOTAL [4]: 2.8 g
LIVER [2]: 12.4 g
LIVER [3]: 13.5 g
LIVER [4]: 16.7 g
A/G [2]: 1.5
ALP [2]: 1114.2 IU/L
ALT [2]: 32 IU/L
AST [2]: 62 IU/L
BUN [2]: 19.2 mg/dL
CRE [2]: 0.5 mg/dL
Ca [2]: 10.9 mg/dL
Cl [2]: 104.6 meq/L
DBIL [2]: 0.054 mg/dL
GLC [2]: 206.4 mg/dL
IP [2]: 7.9 mg/dL
K [2]: 4.9 meq/L
LDH [2]: 99.8 IU/L
Na [2]: 139.4 meq/L
PL [2]: 158.2 mg/dL
RALB [2]: 3.5 g/dL
TBIL [2]: 0.3 mg/dL
TC [2]: 73 mg/dL
TG [2]: 150 mg/dL
TP [2]: 5.9 g/dL
gamma-GTP [2]: 1.4 IU/L
A/G [3]: 1.5
ALP [3]: 764.6 IU/L
ALT [3]: 31.4 IU/L
AST [3]: 63.4 IU/L
BUN [3]: 19 mg/dL
CRE [3]: 0.6 mg/dL
Ca [3]: 10.6 mg/dL
Cl [3]: 105.4 meq/L
DBIL [3]: 0.002 mg/dL
GLC [3]: 207.8 mg/dL
IP [3]: 8.4 mg/dL
K [3]: 4.5 meq/L
LDH [3]: 102.4 IU/L
Na [3]: 141.4 meq/L
PL [3]: 159.4 mg/dL
RALB [3]: 3.8 g/dL
TBIL [3]: 0.2 mg/dL
TC [3]: 75.4 mg/dL
TG [3]: 138.6 mg/dL
TP [3]: 6.3 g/dL
gamma-GTP [3]: 0.8 IU/L
A/G [4]: 1.5
ALP [4]: 596.8 IU/L
ALT [4]: 29.6 IU/L
AST [4]: 56.2 IU/L
BUN [4]: 20 mg/dL
CRE [4]: 0.4 mg/dL
Ca [4]: 10.4 mg/dL
Cl [4]: 106.4 meq/L
DBIL [4]: 0.006 mg/dL
GLC [4]: 201 mg/dL
IP [4]: 8 mg/dL
K [4]: 4.5 meq/L
LDH [4]: 86 IU/L
Na [4]: 140.4 meq/L
PL [4]: 165.8 mg/dL
RALB [4]: 3.9 g/dL
TBIL [4]: 0.3 mg/dL
TC [4]: 76.4 mg/dL
TG [4]: 213.2 mg/dL
TP [4]: 6.5 g/dL
gamma-GTP [4]: 1.4 IU/L
TERMINAL_BW [5]: 224.1 g
APTT [5]: 15.6 s
Bas [5]: 0%
Eos [5]: 1%
Fbg [5]: 226.8 mg/dL
Hb [5]: 13.3 g/dL
Ht [5]: 39.6%
Lym [5]: 71.6%
MCH [5]: 22 pg
MCHC [5]: 33.6%
MCV [5]: 65.5 fL
Mono [5]: 11.4%
Neu [5]: 16.4%
PT [5]: 11.9 s
Plat [5]: 126.7 x10_4/uL
RBC [5]: 605.2 x10_4/ul
Ret [5]: 7.9%
WBC [5]: 126 x10_2/uL
KIDNEY_L [5]: 1 g
KIDNEY_R [5]: 1 g
KIDNEY_TOTAL [5]: 2 g
LIVER [5]: 12 g
A/G [5]: 1.5
ALP [5]: 757.2 IU/L
ALT [5]: 34.6 IU/L
AST [5]: 61.6 IU/L
BUN [5]: 15.2 mg/dL
CRE [5]: 0.5 mg/dL
Ca [5]: 10.6 mg/dL
Cl [5]: 106.6 meq/L
DBIL [5]: 0.018 mg/dL
GLC [5]: 197.2 mg/dL
IP [5]: 8.3 mg/dL
K [5]: 4.8 meq/L
LDH [5]: 106.8 IU/L
Na [5]: 139 meq/L
PL [5]: 147.8 mg/dL
RALB [5]: 3.5 g/dL
TBIL [5]: 0.3 mg/dL
TC [5]: 83.4 mg/dL
TG [5]: 104.8 mg/dL
TP [5]: 5.8 g/dL
gamma-GTP [5]: 1.6 IU/L
TERMINAL_BW [6]: 253.6 g
TERMINAL_BW [7]: 311.1 g
TERMINAL_BW [8]: 391.1 g
APTT [6]: 16.3 s
Bas [6]: 0%
Eos [6]: 1%
Fbg [6]: 236 mg/dL
Hb [6]: 13.8 g/dL
Ht [6]: 41.2%
Lym [6]: 80.6%
MCH [6]: 21.8 pg
MCHC [6]: 33.4%
MCV [6]: 65.2 fL
Mono [6]: 3%
Neu [6]: 15.4%
PT [6]: 11.6 s
Plat [6]: 113.9 x10_4/uL
RBC [6]: 632.6 x10_4/ul
Ret [6]: 6.6%
WBC [6]: 95.6 x10_2/uL
APTT [7]: 16.6 s
Bas [7]: 0%
Eos [7]: 0.2%
Fbg [7]: 234.6 mg/dL
Hb [7]: 15 g/dL
Ht [7]: 45.1%
Lym [7]: 84.6%
MCH [7]: 20.6 pg
MCHC [7]: 33.3%
MCV [7]: 61.7 fL
Mono [7]: 5.8%
Neu [7]: 9.6%
PT [7]: 11.4 s
Plat [7]: 114.1 x10_4/uL
RBC [7]: 731.2 x10_4/ul
Ret [7]: 5%
WBC [7]: 141.4 x10_2/uL
APTT [8]: 17.6 s
Bas [8]: 0%
Eos [8]: 1%
Fbg [8]: 226.6 mg/dL
Hb [8]: 15 g/dL
Ht [8]: 43.9%
Lym [8]: 86.6%
MCH [8]: 20.1 pg
MCHC [8]: 34.1%
MCV [8]: 58.9 fL
Mono [8]: 3.8%
Neu [8]: 8.8%
PT [8]: 12.1 s
Plat [8]: 97.5 x10_4/uL
RBC [8]: 746 x10_4/ul
Ret [8]: 2.9%
WBC [8]: 114.8 x10_2/uL
KIDNEY_L [6]: 1.1 g
KIDNEY_R [6]: 1.1 g
KIDNEY_TOTAL [6]: 2.1 g
KIDNEY_L [7]: 1.2 g
KIDNEY_R [7]: 1.2 g
KIDNEY_TOTAL [7]: 2.3 g
KIDNEY_L [8]: 1.4 g
KIDNEY_R [8]: 1.3 g
KIDNEY_TOTAL [8]: 2.7 g
LIVER [6]: 13.7 g
LIVER [7]: 15.6 g
LIVER [8]: 16.8 g
A/G [6]: 1.5
ALP [6]: 686.4 IU/L
ALT [6]: 28 IU/L
AST [6]: 57 IU/L
BUN [6]: 18.4 mg/dL
CRE [6]: 0.6 mg/dL
Ca [6]: 10.9 mg/dL
Cl [6]: 105.2 meq/L
DBIL [6]: 0.034 mg/dL
GLC [6]: 210 mg/dL
IP [6]: 8.5 mg/dL
K [6]: 4.7 meq/L
LDH [6]: 86.8 IU/L
Na [6]: 139.6 meq/L
PL [6]: 161.2 mg/dL
RALB [6]: 3.6 g/dL
TBIL [6]: 0.4 mg/dL
TC [6]: 82.4 mg/dL
TG [6]: 129.2 mg/dL
TP [6]: 6 g/dL
gamma-GTP [6]: 1.2 IU/L
A/G [7]: 1.6
ALP [7]: 858.8 IU/L
ALT [7]: 33.8 IU/L
AST [7]: 63.2 IU/L
BUN [7]: 17.8 mg/dL
CRE [7]: 0.6 mg/dL
Ca [7]: 11.3 mg/dL
Cl [7]: 106 meq/L
DBIL [7]: 0.004 mg/dL
GLC [7]: 193.8 mg/dL
IP [7]: 9.1 mg/dL
K [7]: 4.7 meq/L
LDH [7]: 100 IU/L
Na [7]: 141.6 meq/L
PL [7]: 162.8 mg/dL
RALB [7]: 4 g/dL
TBIL [7]: 0.2 mg/dL
TC [7]: 83.8 mg/dL
TG [7]: 127.6 mg/dL
TP [7]: 6.6 g/dL
gamma-GTP [7]: 1 IU/L
A/G [8]: 1.6
ALP [8]: 707.4 IU/L
ALT [8]: 29.6 IU/L
AST [8]: 56.2 IU/L
BUN [8]: 21.6 mg/dL
CRE [8]: 0.3 mg/dL
Ca [8]: 10.3 mg/dL
Cl [8]: 108.4 meq/L
DBIL [8]: 0.026 mg/dL
GLC [8]: 195.8 mg/dL
IP [8]: 7.4 mg/dL
K [8]: 5 meq/L
LDH [8]: 84.2 IU/L
Na [8]: 139.8 meq/L
PL [8]: 148 mg/dL
RALB [8]: 3.9 g/dL
TBIL [8]: 0.4 mg/dL
TC [8]: 69.6 mg/dL
TG [8]: 164.4 mg/dL
TP [8]: 6.3 g/dL
gamma-GTP [8]: 1.4 IU/L
